Reference: PMC9138102, “The Role of ZIP9 and Androgen Receptor in the Establishment of Tight Junctions between Adult Rat Sertoli Cells” (Biology, 2022)

How the values were obtained:
AR-specific mRNA = test: AR mRNA silencing in PASC1 cells, qRT-PCR; type: cell-based, rat; conditions: 48 h siRNA
Description: (§1) Primers were designed with http://www.ncbi.nlm.nih.gov/tools/primer-blast (Accessed on 28 February 2022) and were all intron-spanning. Total RNA was isolated from PASC1 with the RNeasy Mini-Kit (Qiagen, Hilden, Germany) and subjected to DNase I treatment as described by the manufacturer. The Reverse Transcription-System first strand cDNA synthesis kit (Invitrogen, Darmstadt, Germany) was used for cDNA synthesis, as recommended. Quantitative real-time PCR (qRT-PCR) amplification was performed in duplicate with iQ TM SYBR Green Super-mix (Bio-Rad; Munich; Germany) on the iCycler iQ System (Bio-Rad). After an initial heating at 94 °C for 5 min, 40 amplification cycles were performed consisting of an initial denaturation of the DNA double strands at 94 °C for 14 s, an annealing phase of the primers at 59 °C for 30 s, and extension of the primers for 15 s at 72 °C. A finalizing extension at 72 °C was carried out for 10 min. Gene expression was measured after reaching the ct value and calculated using the Delta–Delta Ct method. Detection of GAPDH-specific mRNA/cDNA served as normalization of the quantification. Oligonucleotides used in the qRT-PCR, their annealing position, and the expected size of the amplificates are listed in Supplementary Table S2. […]

AR protein = AR protein silencing in PASC1 cells, immunofluorescence; type: cell-based, rat; conditions: 48 h siRNA
Description: PASC1 cells were plated at a density of 3.0 × 10^4 on 24-well plates (1 mL/well) and incubated 48 h at 37 °C and 5% CO2 until a confluence of roughly 80% was reached. Cells were rinsed with DPBS and fixed with 100% ice-cold methanol (Roth, Karlsruhe, Germany) on ice for 10 min directly or after stimulation with vehicle, 10 nM testosterone, or 1 µM P1 for 24 h. Cells were then washed with DPBS three times for 5 min, and then incubated in blocking solution (PBS with 3% BSA and 0.3% Triton X-100, both from Sigma-Aldrich) for 1 h at room temperature. The blocking solution was replaced by fresh blocking solution containing the primary antibodies for detection of either AR, p-Erk1/2, p-CREB/p-ATF-1, claudin-1 (Cldn-1), or zonula occludens-1 (ZO-1) (Supplementary Table S1) and incubated overnight at 4 °C. […] After washing 3 times with DPBS, images were obtained using an inverse Olympus IX81 microscope equipped with a fluorescence system. A total of 30 cells from 3 independent experiments (30 × 3) localized closest to the diagonals of the square optical field were selected and the manually surrounded green fluorescence was quantified by ImageJ (available at http://rsbweb.nih.gov/ij/, last accessed 28 February 2022) following the protocol of the software provider. The data obtained were analyzed by GraphPad Prism5 (GraphPad Software, Inc., La Jolla, CA, USA). […]

[1] = tested on: androgen binding site of ZIP9; test: T-BSA-FITC plasma membrane labeling of PASC1 cells and its displacement; conditions: PASC1 cells, n = 28
Description: PASC1 cells were cultured as described above in 24-well plates at a density of 3 × 10^3 cells/well until reaching a confluence of approximately 80%. The cells were then treated with either 10 nM testosterone or 1 µM of P1 for 1 h. Controls received only the testosterone vehicle (ethanol). […] The medium was then removed by aspiration. In order to label nuclei, cells were fixed at room temperature with 3.7% formaldehyde that contained 20 ng of 4,6-diamino-2-phenylindole (DAPI). After 15 min, the formaldehyde/DAPI solution was removed by aspiration. Cells were washed with Dulbecco’s phosphate-buffered saline (DPBS, Gibco, Schwerte, Germany) and then overlayed with 400 µL PBS before imaging. Images were taken by an inverse Olympus IX81 microscope (Olympus, Hamburg, Germany).

ZIP9-specific mRNA = test: ZIP9 mRNA silencing in PASC1 cells, qRT-PCR; type: cell-based, rat; conditions: 48 h siRNA
Description: as §1

ZIP9 protein = ZIP9 protein silencing in PASC1 cells, immunofluorescence; type: cell-based, rat; conditions: 48 h siRNA
[2] = tested on: androgen binding site ZIP9 of the Sertoli cell line 93RS2; parameters: method as in PMID 35053053, PMID 35053017; conditions: 93RS2 cells; cited from earlier work
[3] = tested on: androgen binding site ZIP9 of L6 myoblasts; conditions: cited from earlier work

AR-siRNA: 5′CCGGAAAUGUUAUGAAGCAtt3′ plus 5′ UGCUUCAUAACAUUUCCGGag 3′ (AR-siRNA for AR silencing) (chain 1 CCGGAAAUGUUAUGAAGCATT; chain 2 UGCUUCAUAACAUUUCCGGAG; Commercial Silencer Select siRNA, lowercase 3' overhang letters not explained, further chemistry not given here)
Expression of AR-specific mRNA (AR-specific mRNA): greatly suppressed
Expression of AR protein (AR protein): also prevented

BSA-FITC: BSA-FITC (lacking testosterone)
Membrane labeling by BSA-FITC (non-specific binding) ([1]; 10 µM BSA-FITC, pH 7.2, 20 min, room temperature): failed to label the membrane structure

ZIP9-directed siRNA: 5′ GGAUUAAGUAAGAGCAGUAtt3′ and 5′ UACUGCUCUUACUUAAUCCta 3′ (ZIP9-siRNA for ZIP9 silencing) (chain 1 GGAUUAAGUAAGAGCAGUATT; chain 2 UACUGCUCUUACUUAAUCCTA; Commercial Silencer Select siRNA, lowercase 3' overhang letters not explained, further chemistry not given here)
Expression of ZIP9 mRNA (ZIP9-specific mRNA): similarly successful in preventing expression
Expression of ZIP9 protein (ZIP9 protein): similarly successful in preventing expression

testosterone 3-(O-carboxymethyl)-oxime:bovine serum albumin-fluorescein isothiocyanate conjugate [T-BSA-FITC]
Labeling of androgen binding site of ZIP9 [2]: suitable to label the androgen binding site ZIP9 of the Sertoli cell line 93RS2
Labeling of androgen binding site of ZIP9 [3]: suitable to label the androgen binding site ZIP9 of the Sertoli cell line 93RS2 and also of L6 myoblasts
Membrane labeling ([1]; 10 µM T-BSA-FITC, pH 7.2, 20 min, room temperature, nc-siRNA treated, fluorescence): label the surface of PASC1 cells
Membrane labeling after ZIP9 knockdown ([1]; ZIP9 expression suppressed by siRNA, 10 µM T-BSA-FITC): suppression of its expression by siRNA prevented the binding of T-BSA-FITC
